Patent US20240158446A1, “CYCLIC COMPOUND HAVING SELECTIVE INHIBITORY ACTION ON KRAS OVER HRAS AND NRAS” (CHUGAI SEIYAKU KABUSHIKI KAISHA, priority 2021, published 2024)
Like-named read-outs stand apart in the source and are kept apart here. Where a SMILES comes first, the peptide text is derived from it. Bridges are numbered along the chain shown (N, C = ends). [ ]: non-standard residue; d: D form. The star is where a group is joined. hPhe(3-Cl-4-CF3) = N[C@@H](CCc1ccc(C(F)(F)F)c(Cl)c1)C(=O)O; NPrPhe(4-CF3) = CCCN[C@@H](Cc1ccc(C(F)(F)F)cc1)C(=O)O; NMeGly(cPent) = CN[C@H](C(=O)O)C1CCCC1; Pro(4,4-F2) = O=C(O)[C@@H]1CC(F)(F)CN1; NEtPhe = CCN[C@@H](Cc1ccccc1)C(=O)O; NMeD = CN[C@@H](CC(=O)O)C(=O)O; NMeL = CN[C@@H](CC(C)C)C(=O)O; Morpholide = C1CN(*)CCO1; Ac5c = NC1(C(=O)O)CCCC1; Sar = CNCC(=O)O

Legend:
[1] = target: GDP-bound KRAS wild-type protein (Homo sapiens, UniProt P01116); assay: Binding to KRAS by surface plasmon resonance (SPR), Single Cycle Kinetics; settings: GDP-bound KRAS wild-type protein, read-out: KRAS KD
Chain of GDP-bound KRAS wild-type protein (P01116 whole entry): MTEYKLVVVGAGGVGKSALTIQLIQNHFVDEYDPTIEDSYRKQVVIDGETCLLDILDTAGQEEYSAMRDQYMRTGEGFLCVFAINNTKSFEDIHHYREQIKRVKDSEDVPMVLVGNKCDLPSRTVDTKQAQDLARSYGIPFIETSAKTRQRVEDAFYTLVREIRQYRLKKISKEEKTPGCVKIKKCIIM

[2] = target: GDP-bound NRAS wild-type protein (Homo sapiens, UniProt P01111); assay: Binding to NRAS by surface plasmon resonance (SPR), Single Cycle Kinetics
Chain of GDP-bound NRAS wild-type protein (P01111 whole entry): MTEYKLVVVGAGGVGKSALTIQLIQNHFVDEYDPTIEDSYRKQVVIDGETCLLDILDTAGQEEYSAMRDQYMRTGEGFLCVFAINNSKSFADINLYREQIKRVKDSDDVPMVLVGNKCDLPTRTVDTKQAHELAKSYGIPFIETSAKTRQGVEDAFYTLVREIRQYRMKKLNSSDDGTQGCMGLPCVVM

[3] = target: GDP-bound HRAS wild-type protein (Homo sapiens, UniProt P01112); assay: Binding to HRAS by surface plasmon resonance (SPR), Single Cycle Kinetics
Chain of GDP-bound HRAS wild-type protein (P01112 whole entry): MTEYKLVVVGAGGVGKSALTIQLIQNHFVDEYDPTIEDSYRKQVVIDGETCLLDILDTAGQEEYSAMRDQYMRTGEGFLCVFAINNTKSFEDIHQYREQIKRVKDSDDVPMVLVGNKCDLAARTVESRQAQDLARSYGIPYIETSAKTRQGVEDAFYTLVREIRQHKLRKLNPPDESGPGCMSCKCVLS

[4] = SPR Single Cycle Kinetics, 1:1 binding model
[5] = SPR, GDP-bound NRAS wild-type protein vs GDP-bound KRAS wild-type protein
[6] = SPR, GDP-bound HRAS wild-type protein vs GDP-bound KRAS wild-type protein
[7] = SPR, Single Cycle Kinetics, 1:1 binding model
[8] = SPR, GDP-bound NRAS wild-type protein vs GDP-bound KRAS wild-type protein, KD ratio class
[9] = SPR, GDP-bound HRAS wild-type protein vs GDP-bound KRAS wild-type protein, KD ratio class

Kd [1, 4] [nM]	Kd ([1]; SPR, Single Cycle Kinetics) [nM]	SMILES	NRAS/KRAS (ratio of KD value for NRAS to KD value for KRAS) [2, 5]	HRAS/KRAS (ratio of KD value for HRAS to KD value for KRAS) [3, 6]	other results
1.9		CCCN1C(=O)CN(C)C(=O)CNC(=O)[C@H]([C@@H](C)CC)NC(=O)[C@H](CC(C)C)N(C)C(=O)C[C@@H](C(=O)N2CCOCC2)NC(=O)[C@H](C2CCCC2)N(C)C(=O)C2(CCCC2)NC(=O)[C@@H]2CC(F)(F)CN2C(=O)[C@H](CCc2ccc(C(F)(F)F)c(Cl)c2)NC(=O)CN(C)C(=O)[C@@H]1Cc1ccc(C(F)(F)F)cc1 [PP0327] ([NMeL]IG[Sar][NPrPhe(4-CF3)][Sar][hPhe(3-Cl-4-CF3)][Pro(4,4-F2)][Ac5c][NMeGly(cPent)]D-Morpholide; lactam N-11)	B (a compound having 3 or more and less than 10 is denoted as B)	B (a compound having 3 or more and less than 10 is denoted as B)	
	0.31	CCO[C@@H]1C[C@H]2C(=O)NC3(CCC3)C(=O)N(C)[C@@H](C3CCCC3)C(=O)N(C)[C@H](C(=O)N(C)C)CC(=O)N(C)[C@@H](CC)C(=O)N[C@@H]([C@@H](C)CC)C(=O)N3C[C@H](OCC)C[C@H]3C(=O)N(C)[C@H]3C/C=C\CCN(C3=O)[C@@H](Cc3ccc(C(F)(F)F)cc3)C(=O)N(C)CC(=O)N[C@@H](CCc3cc(F)c(C(F)(F)F)c(F)c3)C(=O)N2C1 [PP1057]	A (a compound having 10 or more and less than 20 is denoted as A)	B (a compound having 3 or more and less than 10 is denoted as B)	
	0.23	CCO[C@@H]1C[C@H]2C(=O)NC3(CCC3)C(=O)N(C)[C@@H](C3CCCC3)C(=O)N(C)[C@H](C(=O)N3CCOCC3)CC(=O)N(C)[C@@H](CC(C)C)C(=O)N[C@@H]([C@@H](C)CC)C(=O)N(C)CC(=O)N(C)[C@H]3C/C=C\CCN(C3=O)[C@@H](Cc3ccc(C(F)(F)F)cc3)C(=O)N(C)CC(=O)N[C@@H](CCc3ccc(C(F)(F)F)c(Cl)c3)C(=O)N2C1 [PP0825, (2S,8S,12R,14S,20S,23S,27S,30S,36S,38Z)-8-[2-[3-chloro-4-(trifluoromethyl)phenyl]ethyl]-20-cyclopentyl-12-ethoxy-27-isobutyl-4,19,22,26,32,35-hexamethyl-30-[(1S)-1-methylpropyl]-23-(morpholine-4-carbonyl)-2-[[4-(trifluoromethyl)phenyl]methyl]spiro[1,4,7,10,16,19,22,26,29,32,35-undecazatricyclo[34.5.1.0^10,14]dotetracont-38-ene-17,1′-cyclobutane]-3,6,9,15,18,21,25,28,31,34,42-undecone]	A (a compound having 10 or more and less than 20 is denoted as A)	A (a compound having 10 or more and less than 20 is denoted as A)	
		CCC[C@H]1C(=O)N[C@@H]([C@@H](C)CC)C(=O)N(C)CC(=O)N(C)[C@H]2C/C=C\CCN(C2=O)[C@@H](Cc2ccc(C(F)(F)F)cc2)C(=O)N(C)CC(=O)N[C@@H](CCc2cc(F)c(C(F)(F)F)c(F)c2)C(=O)N2C[C@H](OCC)C[C@H]2C(=O)NC2(CCC2)C(=O)N(C)[C@@H](C2CCCC2)C(=O)N(C)[C@H](C(=O)N(C)CCC)CC(=O)N1C [PP1389, (2S,8S,12R,14S,20S,23S,27S,30S,36S,38Z)-20-cyclopentyl-8-[2-[3,5-difluoro-4-(trifluoromethyl)phenyl]ethyl]-12-ethoxy-N,4,19,22,26,32,35-heptamethyl-30-[(1S)-1-methylpropyl]-3,6,9,15,18,21,25,28,31,34,42-undecaoxo-N,27-dipropyl-2-[[4-(trifluoromethyl)phenyl]methyl]spiro[1,4,7,10,16,19,22,26,29,32,35-undecazatricyclo[34.5.1.0^10,14]dotetracont-38-ene-17,1′-cyclobutane]-23-carboxamide]			Kd [1, 7]: 0.066 nM; NRAS/KRAS (ratio of KD value for NRAS to KD value for KRAS) [2, 8]: AA (a compound having 20 or more is denoted as AA); HRAS/KRAS (ratio of KD value for HRAS to KD value for KRAS) [3, 9]: A (a compound having 10 or more and less than 20 is denoted as A)
	0.14	CCOC[C@H]1C(=O)N[C@@H]([C@@H](C)CC)C(=O)N(C)CC(=O)N(C)[C@H]2C/C=C\CCN(C2=O)[C@@H](Cc2ccc(C(F)(F)F)cc2)C(=O)N(C)CC(=O)N[C@@H](CCc2cc(F)c(C(F)(F)F)c(F)c2)C(=O)N2C[C@@H](C)C[C@H]2C(=O)NC2(CC(C)(C)C2)C(=O)N(C)[C@@H](C2CCCC2)C(=O)N(C)[C@H](C(=O)N(C)CC)CC(=O)N1C [PP2042]	A (a compound having 10 or more and less than 20 is denoted as A)	A (a compound having 10 or more and less than 20 is denoted as A)	
0.52		CC[C@H](C)[C@@H]1NC(=O)[C@H](CC(C)C)N(C)C(=O)C[C@@H](C(=O)N2CCOCC2)N(C)C(=O)[C@H](C2CCCC2)N(C)C(=O)C2(CCCC2)NC(=O)[C@@H]2CCCN2C(=O)[C@H](CCc2ccc(C(F)(F)F)c(Cl)c2)NC(=O)CN(C)C(=O)[C@H](Cc2ccccc2)N(CC)C(=O)CN(C)C(=O)CN(C)C1=O [PP0210] ([NMeL]I[Sar][Sar][NEtPhe][Sar][hPhe(3-Cl-4-CF3)]P[Ac5c][NMeGly(cPent)][NMeD]-Morpholide; lactam N-11)	C (A compound having a KD ratio of 0.1 or more and less than 3 is denoted as C)	C (A compound having a KD ratio of 0.1 or more and less than 3 is denoted as C)	
	0.36	CCCOC[C@H]1C(=O)N[C@@H]([C@@H](C)CC)C(=O)N2CCC[C@H]2C(=O)N(C)[C@H]2C/C=C\CCN(C2=O)[C@@H](Cc2ccc(C)cc2)C(=O)N(C)CC(=O)N[C@@H](CCc2ccc(C(F)(F)F)c(OC)c2)C(=O)N2C[C@H](OCC)C[C@H]2C(=O)N(C)C2(CCC2)C(=O)N(C)[C@@H](C(CC)CC)C(=O)N(C)[C@H](C(=O)N(C)C)CC(=O)N1C [PP2331]	AA (a compound having 20 or more is denoted as AA)	A (a compound having 10 or more and less than 20 is denoted as A)	
	0.098	CCO[C@@H]1C[C@H]2C(=O)NC3(CCC3)C(=O)N(C)[C@@H](C3CCCC3)C(=O)N(C)[C@H](C(=O)N(C)C)CC(=O)N(C)[C@@H](CC)C(=O)N[C@@H]([C@@H](C)CC)C(=O)N(C)CC(=O)N(C)[C@H]3CCCCN(C3=O)[C@@H](Cc3ccc(C(F)(F)F)cc3)C(=O)N(C)CC(=O)N[C@@H](CCc3ccc(C(F)(F)F)cc3F)C(=O)N2C1 [PP0885]	C (A compound having a KD ratio of 0.1 or more and less than 3 is denoted as C)	B (a compound having 3 or more and less than 10 is denoted as B)	
	0.42	CCC[C@H]1C(=O)N[C@@H]([C@@H](C)CC)C(=O)N2CCC[C@H]2C(=O)N(C)[C@H]2C/C=C\CCN(C2=O)[C@@H](Cc2ccc(C)cc2)C(=O)N(C)CC(=O)N[C@@H](CCc2ccc(C(F)(F)F)c(OC)c2)C(=O)N2C[C@H](OCC)C[C@H]2C(=O)N(C)C2(CCC2)C(=O)N(C)[C@@H](C(CC)CC)C(=O)N(C)[C@H](C(=O)N(C)C)CC(=O)N1C [PP2329]	A (a compound having 10 or more and less than 20 is denoted as A)	A (a compound having 10 or more and less than 20 is denoted as A)	
		CCO[C@@H]1C[C@H]2C(=O)NC3(CCC3)C(=O)N(C)[C@@H](C3CCCC3)C(=O)N(C)[C@H](C(=O)N(C)CC)CC(=O)N(C)[C@@H](CC)C(=O)N[C@@H]([C@@H](C)CC)C(=O)N(C)CC(=O)N(C)[C@H]3C/C=C\CCN(C3=O)[C@@H](CC3CCC(F)(F)CC3)C(=O)N(C)CC(=O)N[C@@H](CCc3cc(F)c(C(F)(F)F)c(F)c3)C(=O)N2C1 [PP1553, (2S,8S,12R,14S,20S,23S,27S,30S,36S,38Z)-20-cyclopentyl-2-[(4,4-difluorocyclohexyl)methyl]-8-[2-[3,5-difluoro-4-(trifluoromethyl)phenyl]ethyl]-12-ethoxy-N,27-diethyl-N,4,19,22,26,32,35-heptamethyl-30-[(1S)-1-methylpropyl]-3,6,9,15,18,21,25,28,31,34,42-undecaoxo-spiro[1,4,7,10,16,19,22,26,29,32,35-undecazatricyclo[34.5.1.0^10,14]dotetracont-38-ene-17,1′-cyclobutane]-23-carboxamide]			Kd [1, 7]: 0.13 nM; NRAS/KRAS (ratio of KD value for NRAS to KD value for KRAS) [2, 8]: A (a compound having 10 or more and less than 20 is denoted as A); HRAS/KRAS (ratio of KD value for HRAS to KD value for KRAS) [3, 9]: A (a compound having 10 or more and less than 20 is denoted as A)
0.034		CC[C@H](C)[C@@H]1NC(=O)[C@H](CC(C)C)N(C)C(=O)C[C@@H](C(=O)N(C)C)N(C)C(=O)[C@H](C2CCCC2)N(C)C(=O)C2(CCCC2)NC(=O)[C@@H]2CCCN2C(=O)[C@H](CCc2cc(F)c(C(F)(F)F)c(F)c2)NC(=O)CN(C)C(=O)[C@H](Cc2ccc(C(F)(F)F)cc2)N2CCCC[C@@H](C2=O)N(C)C(=O)CN(C)C1=O [PP0569]			NRAS/KRAS (ratio of KD value with respect to NRAS to KD value with respect to KRAS) [2, 5]: C (A compound having a KD ratio of 0.1 or more and less than 3 is denoted as C); HRAS/KRAS (ratio of KD value with respect to HRAS to KD value with respect to KRAS) [3, 6]: B (a compound having 3 or more and less than 10 is denoted as B)
4.5		CCO[C@@H]1C[C@H]2C(=O)NC3(CCC3)C(=O)N(C)[C@@H](C3CCCC3)C(=O)N(C)[C@H](C(=O)N(C)C)CC(=O)N(C)[C@@H](CC3CCCC3)C(=O)N[C@@H]([C@@H](C)CC)C(=O)N(C)CC(=O)N(C)[C@H]3C/C=C\CCN(C3=O)[C@@H](Cc3ccc(C)cc3)C(=O)N(C)CC(=O)N[C@@H](CCc3cc(C)c(C(F)F)c(C)c3)C(=O)N2C1 [PP2675]			NRAS/KRAS (ratio of KD value with respect to GDP-bound NRAS wild-type protein to KD value with respect to KRAS) ([2]; SPR KD ratio NRAS/KRAS, class symbols): A (a compound having 10 or more and less than 20 is denoted as A); HRAS/KRAS (ratio of KD value with respect to GDP-bound HRAS wild-type protein to KD value with respect to KRAS) ([3]; SPR KD ratio HRAS/KRAS, class symbols): A (a compound having 10 or more and less than 20 is denoted as A)
